Assays:
[1] = refractive index (Na D-line) (dimensionless); conditions: 298.15 K; 101.33 kPa; Liquid; Standard Abbe refractometry
[2] = 101.33 kPa, Liquid
[3] = xn = mol fraction of the nth substance listed; conditions: 101 kPa, Liquid

CCO [ethanol]
Conditions	refractive index
[1]	1.3595

[2]
Conditions	mass density [kg/m3]
283.15 K	797.99
288.15 K	793.73
293.15 K	789.47
298.15 K	785.18
303.15 K	780.87
308.15 K	776.52
313.15 K	772.14

CO [methanol]
Conditions	refractive index
[1]	1.327

[2]
Conditions	mass density [kg/m3]
283.15 K	800.67
288.15 K	795.98
293.15 K	791.28
298.15 K	786.57
303.15 K	781.85
308.15 K	777.1
313.15 K	772.32

CO [methanol] + CCO
mass density [kg/m3], [3]
Conditions	x1 = 0.0729	x1 = 0.1632	x1 = 0.3251	x1 = 0.5592	x1 = 0.6349	x1 = 0.7182	x1 = 0.8027	x1 = 0.8714	x1 = 0.9485
283.15 K	798.11	798.27	798.58	799.14	799.35	799.6	799.88	800.12	800.43
288.15 K	793.83	793.97	794.22	794.68	794.85	795.07	795.3	795.51	795.78
293.15 K	789.54	789.64	789.84	790.2	790.34	790.52	790.71	790.89	791.1
298.15 K	785.23	785.3	785.44	785.7	785.81	785.95	786.11	786.25	786.43
303.15 K	780.89	780.94	781.02	781.19	781.26	781.36	781.49	781.59	781.73
308.15 K	776.52	776.54	776.57	776.65	776.69	776.76	776.84	776.9	777.01
313.15 K	772.12	772.11	772.09	772.08	772.09	772.12	772.16	772.19	772.26

O [water]
Conditions	refractive index
[1]	1.3326

Source: the NIST ThermoML archive (doi:10.1021/je700300y)
